Here are results for 7 compounds from patent US7585885B2, “Pyrrolidine derivatives useful as BACE inhibitors” (Eli Lilly and Company, priority 2004, dated 2009).

As a reminder, the pIC50 is the negative decadic logarithm of the IC50, by convention in mol/L.

One assay deals with T1, human BACE1 (1-460):Fc (Homo sapiens, UniProt P56817).
T1 construct: made in house; host or cells: HEK293 (transient transfection, purified from conditioned media on Protein A-agarose)
Nature of the assay: BACE1 mcaFRET Assay. The assay is classed as biochemical. To be noted: FRET substrate 15 micromolar, pH 4.6, room temperature 16 to 24 hours. Here is the method: (§1) For in vitro enzymatic and cellular assays, test compounds are prepared in DMSO to make up a 10 millimolar stock solution. The stock solution is serially diluted (in a 1:3, 1:2.5, 1:2, or 1:1 dilution series) in DMSO to obtain a final compound concentration of 10 millimolar to 1 micromolar at the first highest concentration of a ten-point dilution curve in a 96-well round-bottom plate right before conducting the in vitro enzymatic and whole assays.
Serial dilutions of test compounds are prepared as described above. Two microliter of each dilution is added to each well on row A to H of a corresponding low protein binding black plate to which 50 microliter of 50 millimolar ammonium acetate, pH 4.6, 1 mM Triton X-100, 1 mg/ml Bovine Serum Albumin, and 15 micromolar of FRET substrate (sequence: (MCA)-S-E-V-N-L-D-A-E-F-R-K(Dnp)-R-R-R-R-NH2) for BACE1 activity are pre-added. The content is mixed well on a plate shaker for 10 min. Fifty microliter of two hundred picomolar human BACE1 (1-460):Fc (See: Vasser, et al., Science, 286, 735-741 (1999)) in the same reaction buffer described above is added to the plate containing substrate and test compounds to initiate the reaction. The relative fluorescence unit (RFU) of the mixture at time 0 is recorded at excitation wavelength 330 nm and emission wavelength 400 nm, after brief mixing on a plate shaker. The reaction plate is covered with aluminum foil and kept in a dark humidified oven at room temperature for 16 to 24 hours. The RFU at the end of incubation is recorded with the same excitation and emission setting. The difference of the RFU at time 0 and the end of incubation represents the activity of BACE1 under the compound treatment. The 10-point inhibition curve was plotted and fitted with the four-parameter logistic equation to obtain the EC50 and IC50 values. (See: Sinha, et al., Nature, 402, 537-540 (2000)). […] Data for selected compounds of the invention tested in this assay are contained in the following table.
Both human (accession number: AF190725) and murine (accession number: NM_011792) BACE1 were cloned from total brain cDNA by […]. The nucleotide sequences corresponding to amino acid sequences #1 to 460 were inserted into the cDNA encoding human IgG1 (Fc) polypeptide (Vassar et al. 1999). This fusion protein of BACE1 (1-460) and human Fc, named huBACE1:Fc, was constructed into the pJB02 vector. Human BACE1(1-460):Fc (huBACE1:Fc) and murine BACE1(1-460):Fc (muBACE1:Fc) were transiently expressed in HEK293 cells. 250 μg cDNA of each construct was mixed with Fugene 6 and added to 1 liter HEK293 cells. Four days after the transfection, conditioned media were harvested for purification.
Conditioned media of HEK293 cell transiently transfected with huBACE1:Fc or muBACE1:Fc cDNA were collected. Cell debris was removed by filtering the conditioned media through 0.22 μm sterile filter. 5 ml Protein A-agarose (bed volume) was added to 4 liter conditioned media. This mixture was gently stirred overnight at 4° C. The Protein A-agarose resin was collected and packed into a low-pressure chromatography column. The column washed with 20× bed volumes of PBS at flow rate 20 ml per hour. Bound huBACE1:Fc or muBACE1:Fc protein was eluted with 50 mM acetic acid, pH 3.6, at flow rate 20 ml per hour. 1 ml fractions of eluate were neutralized immediately with 0.5 ml 200 mM ammonium acetate, pH 6.5. The purity of final product was assessed by electrophoresis in 4-20% Tris-Glycine SDS-PAGE. The enzyme was stored at −80 C in small aliquots.

In the next assay the target is T2, beta-secretase activity (Homo sapiens, UniProt P56817).
T2 construct: endogenous in cells; host or cells: HEK293p (ATCC CRL-1573) stably expressing human APP751sw or APP751wt
T2 sequence (P56817 46-501): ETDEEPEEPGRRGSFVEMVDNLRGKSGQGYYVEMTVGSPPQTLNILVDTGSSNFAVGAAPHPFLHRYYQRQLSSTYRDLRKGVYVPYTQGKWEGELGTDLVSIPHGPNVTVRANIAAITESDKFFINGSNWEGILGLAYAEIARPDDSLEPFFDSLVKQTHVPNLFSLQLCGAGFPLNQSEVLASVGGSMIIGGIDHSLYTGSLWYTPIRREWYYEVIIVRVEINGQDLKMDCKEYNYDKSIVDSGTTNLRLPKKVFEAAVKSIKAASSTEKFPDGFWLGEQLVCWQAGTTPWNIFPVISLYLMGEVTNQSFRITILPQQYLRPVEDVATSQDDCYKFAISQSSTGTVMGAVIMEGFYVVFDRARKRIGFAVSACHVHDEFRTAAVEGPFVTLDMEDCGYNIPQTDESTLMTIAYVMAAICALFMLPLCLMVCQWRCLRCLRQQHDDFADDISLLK
Description: Whole cell assay for measuring the inhibition of beta-secretase activity. The class given is cell-based. To be noted: HEK293/APP751sw or HEK293/APP751wt cells, 37 C for 4 to 6 hours, sandwich ELISA of conditioned media; read-out: IC50 (Abeta, sAPPbeta-lowering effect). As to the method: as §1
The routine whole cell assay for the measurement of inhibition of beta-secretase activity utilizes the human embryonic kidney cell line HEK293p (ATCC Accession No. CRL-1573) stably expressing a human APP751 cDNA containing the naturally occurring double mutation […] to Asn651Leu652, commonly called the Swedish mutation (noted HEK293/APP751sw) and shown to overproduce Abeta (Citron et al., 1992, Nature 360:672-674). Human embryonic kidney HEK293p cells stably expressing wild-type human APP751 cDNA (noted HEK293/APP751 wt) are also used to assess the inhibition of beta-secretase activity. In vitro Aβ reduction assays have been described in the literature (See: Dovey, et al., Journal of Neurochemistry, 76, 173-181 (2001); Seubert, et al., Nature, 361, 260 (1993); and Johnson-Wood, et al., Proc. Natl. Acad. Sci. USA, 94, 1550-1555 (1997))
Cells (HEK293/APP751sw or HEK293/APP751wt, at 3×10^4 cells/well, containing 200 microliters culture media, DMEM containing 10% FBS) are incubated at 37 C for 4 to 6 hours in the presence/absence of inhibitors (diluted in DMSO) at the desired concentration. At the end of the incubation, conditioned media are analyzed for beta-secretase activity, for example, by analysis of cleavage fragments, Abeta peptide and sAPPbeta. Abeta peptides are measured by a sandwich ELISA, using monoclonal 266 as a capture antibody and biotinylated 3D6 as reporting antibody. The sAPPbeta fragments are analyzed by a sandwich ELISA, using monoclonal 8E5 antibody as a capture antibody and rabbit polyclonal 192sw or 192wt as a reporting antibody. Note that sAPPbeta is the cleavage product of full length APP by BACE1. The concentration of sAPPbeta released in the conditioned media following the compound treatment corresponds to the activity of BACE1 under such conditions. The 10-point inhibition curve was plotted and fitted with the four-parameter logistic equation to obtain the EC50 and IC50 values for the Abeta, sAPPbeta-lowering effect. Data for selected compounds of the invention tested in this assay are contained in the following table.
On the technique in general: An ELISA detects its analyte on a solid surface through an enzyme-linked reagent.

pIC50: −log10 of the molar value. Counter-ions that a name gives are not always drawn.

T1 sequence (P56817 22-460): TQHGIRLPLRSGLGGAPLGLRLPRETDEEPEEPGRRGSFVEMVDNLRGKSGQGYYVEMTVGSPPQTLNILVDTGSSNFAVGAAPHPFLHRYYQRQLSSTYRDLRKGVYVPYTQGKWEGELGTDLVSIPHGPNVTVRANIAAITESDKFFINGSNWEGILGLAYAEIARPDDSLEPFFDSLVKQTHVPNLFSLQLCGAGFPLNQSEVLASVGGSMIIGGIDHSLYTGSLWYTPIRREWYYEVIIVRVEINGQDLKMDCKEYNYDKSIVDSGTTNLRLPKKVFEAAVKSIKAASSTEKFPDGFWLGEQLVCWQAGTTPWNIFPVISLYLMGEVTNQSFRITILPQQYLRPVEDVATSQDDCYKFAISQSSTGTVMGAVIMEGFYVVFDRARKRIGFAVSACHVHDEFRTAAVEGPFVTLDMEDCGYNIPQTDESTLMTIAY

In the case of `CCC(C)Nc1cc(C(=O)NC(Cc2ccccc2)C(O)C2CC(F)CN2)cc(N(C)S(C)(=O)=O)n1` [Example 7, N-[1-(S)-Benzyl-2-(R)-(4-(S)-fluoropyrrolidin-2-yl)-2-(R)-hydroxyethyl]-2-(S)-sec-butylamino-6-(methanesulfonyl-methylamino)-isonicotinamide bishydrochloride], the pIC50 against human BACE1 (1-460):Fc was 8.41; on beta-secretase activity, 7.89.

For `CCC(C)Nc1cc(C(=O)NC(Cc2ccccc2)C(O)C2CCCN2)cc(N(C)S(C)(=O)=O)n1` [Example 12, N-((1S,2R)-1-Benzyl-2-hydroxy-2-(R)-pyrrolidin-2-ylethyl)-2-(S)-sec-butylamino-6-(methanesulfonyl-methylamino)-isonicotinamide hydrochloride], the pIC50 at human BACE1 (1-460):Fc is 8.74; at beta-secretase activity, 7.82.

As for `CC(=O)N[C@@H](Cc1cc(F)cc(F)c1)[C@H](O)[C@H]1C[C@@H](CC(=O)N2CCCCC2)CN1` [Example 33, N-{(1S,2R)-1-(3,5-Difluoro-benzyl)-2-hydroxy-2-[(2R,4S)-4-(2-oxo-2-piperidin-1-yl-ethyl)-pyrrolidin-2-yl]-ethyl}-acetamide hydrochloride], the figures for the pIC50 against human BACE1 (1-460):Fc and at beta-secretase activity were 6.09 and 4.85, respectively.

On human BACE1 (1-460):Fc, `CC(=O)N[C@@H](Cc1cc(F)cc(F)c1)[C@H](O)[C@H]1C[C@@H](CC(=O)N2CCOCC2)CN1` [Example 35, N-{(1S,2R)-1-(3,5-Difluoro-benzyl)-2-hydroxy-2-[(2R,4S)-4-(2-morpholin-4-yl-2-oxo-ethyl)-pyrrolidin-2-yl]-ethyl}-acetamide hydrochloride] showed a pIC50 of 5.85.

With `CC(=O)N[C@@H](Cc1cc(F)cc(F)c1)[C@H](O)[C@H]1C[C@@H](CC(=O)N(C)C)CN1` [Example 37, 2-{(3S,5R)-5-[(1R,2S)-2-Acetylamino-3-(3,5-difluoro-phenyl)-1-hydroxy-propyl]-pyrrolidin-3-yl}-N,N-dimethyl-acetamide hydrochloride], the pIC50 on human BACE1 (1-460):Fc is 5.28.

Consider `CC(=O)N[C@@H](Cc1cc(F)cc(F)c1)[C@H](O)[C@H]1C[C@@H](CC(=O)N2CCCCCC2)CN1` [Example 41, N-[(1S,2R)-2-[(2R,4S)-4-(2-Azepan-1-yl-2-oxo-ethyl)-pyrrolidin-2-yl]-1-(3,5-difluoro-benzyl)-2-hydroxy-ethyl]-acetamide hydrochloride], for which the negative-log IC50 (pIC50) against human BACE1 (1-460):Fc was 6.42; at beta-secretase activity, 5.22.

For `CC(=O)N[C@@H](Cc1cc(F)cc(F)c1)[C@H](O)[C@H]1C[C@@H](OCCC2CCCCC2)CN1` [Example 60, N-[(1S,2R)-2-[(2R,4R)-4-(2-Cyclohexyl-ethoxy)-pyrrolidin-2-yl]-1-(3,5-difluoro-benzyl)-2-hydroxy-ethyl]-acetamide hydrochloride], at human BACE1 (1-460):Fc, the pIC50 is 5.64.
